Assays:
Format in all cases: in vivo
[1] = test system: Triticum aestivium (TRZAW); assay: B1 Pre-emergence herbicidal activity; parameters: key: 5=total damage to plant; 0=no damage to plant; details: pre-emergence application, rate 1000 g/ha, evaluated after 13 days
Procedure, shortened: (§1)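 Sow in soil → 1 d glasshouse (24/16 °C, 14 h light, 65% RH) → spray pre-emergence (acetone/water 50:50, 0.5% Tween 20) → grow 13 d, water twice daily → score 0–5 (5 = total damage).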

[2] = test system: Alopecurus myosuroides (ALOMY); assay: B1 Pre-emergence herbicidal activity; parameters: key: 5=total damage to plant; 0=no damage to plant; details: pre-emergence application, rate 1000 g/ha, evaluated after 13 days
Procedure, shortened: as §1

Avena fatua (AVEFA) [3] = assay: B1 Pre-emergence herbicidal activity; parameters: key: 5=total damage to plant; 0=no damage to plant; details: pre-emergence application, rate 1000 g/ha, evaluated after 13 days
Procedure, shortened: as §1

Setaria fabenr (SETFA) = assay: B1 Pre-emergence herbicidal activity; parameters: key to Pre-emergence herbicidal activity, SETFA (damage score 0-5): 5=total damage to plant; 0=no damage to plant; details: pre-emergence application, rate 1000 g/ha, evaluated after 13 days
Procedure, shortened: as §1

[4] = test system: Echinochloa crus-galli (ECHCG); assay: B2 Post-emergence herbicidal activity; parameters: key to Post-emergence herbicidal activity, ECHCG (damage score 0-5): 5=total damage to plant; 0=no damage to plant; details: post-emergence application, rate 1000 g/ha, evaluated after 13 days
Procedure, shortened: (§2)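 Test seeds are sown in standard soil and raised for 8 days under controlled glasshouse conditions (24/16 °C, 14 h light, 65% humidity). Foliage is then sprayed with compound formulated in 50:50 acetone/water plus 0.5% Tween 20, and plants are rated 0–5 for damage after 13 days.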

Lolium perenne (LOLPE) [5] = assay: B2 Post-emergence herbicidal activity; details: post-emergence application, rate 1000 g/ha, evaluated after 13 days
Method: (§3) Seeds of a variety of test species were sown in standard soil in pots: Triticum aestivium (TRZAW), Avena fatua (AVEFA), Alopecurus myosuroides (ALOMY), Echinochloa crus-galli (ECHCG), Lolium perenne (LOLPE), Zea Mays (ZEAMX), Abutilon theophrasti (ABUTH), Amaranthus retroflexus (AMARE) and Setaria fabenri (SETFA). After 8 days cultivation (post-emergence) under controlled conditions in a glasshouse (at 24/16° C., day/night; 14 hours light; 65% humidity), the plants were sprayed with an aqueous spray solution derived from the formulation of the technical active ingredient in acetone I water (50:50) solution containing 0.5% Tween 20 (polyoxyethelyene sorbitan monolaurate, CAS RN 9005-64-5). The test plants were then grown in a glasshouse under controlled conditions (at 24/16° C., day/night; 14 hours light; 65% humidity) and watered twice daily. After 13 days, the test was evaluated (5=total damage to plant; 0=no damage to plant).

Lolium perenne (LOLPE) [6] = assay: B1 Pre-emergence herbicidal activity; parameters: key to Pre-emergence herbicidal activity, LOLPE (damage score 0-5): 5=total damage to plant; 0=no damage to plant; details: pre-emergence application, rate 1000 g/ha, evaluated after 13 days
Procedure, shortened: as §1

Setaria fabenri (SETFA) = assay: B2 Post-emergence herbicidal activity; parameters: key: 5=total damage to plant; 0=no damage to plant; details: post-emergence application, rate 1000 g/ha, evaluated after 13 days
Procedure, shortened: as §2

[7] = test system: Triticum aestivium (TRZAW); assay: B2 Post-emergence herbicidal activity; parameters: key: 5=total damage to plant; 0=no damage to plant; details: post-emergence application, rate 1000 g/ha, evaluated after 13 days
Procedure, shortened: as §2

[8] = test system: Alopecurus myosuroides (ALOMY); assay: B2 Post-emergence herbicidal activity; parameters: key: 5=total damage to plant; 0=no damage to plant; details: post-emergence application, rate 1000 g/ha, evaluated after 13 days
Procedure, shortened: as §2

[9] = test system: Echinochloa crus-galli (ECHCG); assay: B1 Pre-emergence herbicidal activity; details: pre-emergence application, rate 1000 g/ha, evaluated after 13 days
Procedure, shortened: as §1

Avena fatua (AVEFA) [10] = assay: B2 Post-emergence herbicidal activity; details: post-emergence application, rate 1000 g/ha, evaluated after 13 days
Method: as §3

SMILES	Pre-emergence herbicidal activity, TRAZW (damage score 0-5) [1]	Pre-emergence herbicidal activity, ALOMY (damage score 0-5) [2]	Pre-emergence herbicidal activity, AVEFA (damage score 0-5) (Avena fatua (AVEFA) [3])	Pre-emergence herbicidal activity, SETFA (damage score 0-5) (Setaria fabenr (SETFA))	Post-emergence herbicidal activity, ECHCG (damage score 0-5) [4]	Post-emergence herbicidal activity, LOLPE (damage score 0-5) (Lolium perenne (LOLPE) [5])	Pre-emergence herbicidal activity, LOLPE (damage score 0-5) (Lolium perenne (LOLPE) [6])	Post-emergence herbicidal activity, SETFA (damage score 0-5) (Setaria fabenri (SETFA))	Post-emergence herbicidal activity, TRAZW (damage score 0-5) [7]	Post-emergence herbicidal activity, ALOMY (damage score 0-5) [8]	Pre-emergence herbicidal activity, ECHCG (damage score 0-5) [9]	Post-emergence herbicidal activity, AVEFA (damage score 0-5) (Avena fatua (AVEFA) [10])
O=C(Nc1ccc(-c2cncc(F)c2)nc1C(F)(F)F)C1CC1 [Compound C59]	0	0	3	5	5	3	1	4	0	1	4	3
O=C1CCC(=O)N1c1ccc(-c2cncc(F)c2)nc1C(F)(F)F [Compound C67, 1-[6-(5-fluoro-3-pyridyl)-2-(trifluoromethyl)-3-pyridyl]pyrrolidine-2,5-dione]	0	0	0	2	4	2	0	4	0	0	1	2
CCCC(=O)Nc1ccc(-c2cncc(F)c2)nc1C(F)(F)F [Compound C22]	0	0	2	5	4	2	1		0	0	4	3
CCC(=O)Nc1ccc(-c2cncnc2)nc1C#N [Compound C116]		0	1	5	4	1	0	5	0	0	3	2
